Our source for the TGI and GI50 values is PubChem BioAssay (NCI).

Among the test systems are SK-MEL-2 melanoma; SF-539 CNS; ACHN renal; COLO 205 colon; K-562 leukemia; SNB-19 CNS; SR leukemia; HOP-62 NSCLC; OVCAR-4 ovarian; HCC-2998 colon.
What all share (test): growth of human tumour cells (NCI), 48 h

SMILES strings stand for the structures. Values joined by “and” are separate entries in the source; they are usually repeats but may differ in a detail not shown here. Identical values can stand only once.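 Five compound concentrations were applied to cells in 96-well plates for 48 hours; endpoints were derived by simple linear interpolation of the resulting dose-response curve. Abbreviation: GI50, concentration required for 50% inhibition of growth. At the TGI there is no net growth.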

`CC1(c2ccccc2)CC(c2ccccc2)=NO1` (stereo not given): the TGI in the test with SK-MEL-2 melanoma, in the test on SF-539 CNS, with ACHN renal, in the test on COLO 205 colon, in the test on K-562 leukemia and in the test on SNB-19 CNS was greater than 100 µM throughout. In addition, the TGI with SR leukemia, with HOP-62 NSCLC, with OVCAR-4 ovarian and in the test on HCC-2998 colon was greater than 100 µM throughout.

`COc1cccc(/C=C2\CCC(C)(CN(C)C)C2=O)c1` (stereo not given): the TGI in the test with SK-MEL-2 melanoma, with SF-539 CNS, with ACHN renal, with COLO 205 colon, in the test with K-562 leukemia and in the test with SNB-19 CNS was greater than 100 µM in each case. The TGI in the test with SR leukemia, in the test with HOP-62 NSCLC, in the test with OVCAR-4 ovarian and in the test on HCC-2998 colon was greater than 100 µM each time.

For `CCN(CC)CCNC(=O)c1cn2ncnc(Oc3ccc(NC(=O)Nc4ccc(Cl)c(C(F)(F)F)c4)c(F)c3)c2c1C`, the GI50 with SK-MEL-2 melanoma is 1.61 µM; with SF-539 CNS it was 1.12 µM; with ACHN renal it was 1.68 µM; with COLO 205 colon, 1.44 µM; in the test on K-562 leukemia, 0.442 µM; in the test with SNB-19 CNS it was 1.95 µM. The GI50 in the test with SR leukemia was 0.343 µM; in the test on HOP-62 NSCLC it was 1.88 µM; with OVCAR-4 ovarian, 1.74 µM; with HCC-2998 colon, 2.17 µM. Moreover, the TGI in the test on SK-MEL-2 melanoma was found to be 3.3 µM; in the test with SF-539 CNS, 2.43 µM; in the test on ACHN renal, 3.04 µM; in the test with COLO 205 colon, 3.16 µM; in the test with K-562 leukemia, 2.28 µM; with SNB-19 CNS, 3.5 µM. Also, the TGI in the test with SR leukemia is 1.09 µM; in the test on HOP-62 NSCLC, 3.72 µM; with OVCAR-4 ovarian, 3.36 µM; in the test on HCC-2998 colon, 3.77 µM.

With `COc1ccc(-c2nnc(N3CCN(C(=O)CN4CCN(c5ccc(OC)cc5)CC4)CC3)nc2-c2ccc(OC)cc2)cc1`, the GI50 in the test with SK-MEL-2 melanoma is 10.2 µM; in the test with SF-539 CNS, 14.1 µM; in the test on ACHN renal, 18.1 µM; in the test on COLO 205 colon, 6.36 µM; in the test on K-562 leukemia, 2.14 µM; with SNB-19 CNS, 20.7 µM. The GI50 is 2.1 µM with SR leukemia, 16.5 µM in the test with HOP-62 NSCLC, 3.47 µM in the test with OVCAR-4 ovarian and 18.8 µM in the test with HCC-2998 colon. For the same compound, the TGI in the test with SK-MEL-2 melanoma came to 44.1 µM; in the test with SF-539 CNS, 33.2 µM; in the test on ACHN renal, 50.8 µM; in the test on COLO 205 colon, 29.7 µM; with K-562 leukemia, 4.44 µM; in the test on SNB-19 CNS, 46.4 µM. The TGI in the test with SR leukemia turned out to be 4.04 µM; with HOP-62 NSCLC it was 44 µM; in the test with OVCAR-4 ovarian it was 12.5 µM; in the test with HCC-2998 colon, 47.2 µM.

As for `C[n+]1c2ccccc2cc2c(CNC(CCCN=C(N)N)C(=O)O)cccc21` (stereo not given), the GI50 in the test on SK-MEL-2 melanoma is 0.957 µM; in the test with ACHN renal it was 0.486 µM; in the test on K-562 leukemia, 0.485 µM; with SR leukemia it was 0.22 µM; in the test with HOP-62 NSCLC, 9.22 µM; in the test with HCC-2998 colon, 5.14 µM. In addition, the TGI is 7.25 µM in the test with SK-MEL-2 melanoma; 2.66 µM and 2.91 µM with SF-539 CNS; 1.83 µM and 2.05 µM with ACHN renal; 0.686 µM in the test with COLO 205 colon; 1.09 µM and 7.63 µM with K-562 leukemia; 0.468 µM and 0.582 µM in the test on SR leukemia. Also, the TGI was 6.88 µM and 22 µM in the test with HOP-62 NSCLC; 23.9 µM in the test with OVCAR-4 ovarian; 5.67 µM and 16.7 µM in the test with HCC-2998 colon.

`Cc1cc2c(Br)cc(Br)c(O)c2nc1C(=O)c1ccccc1`: the TGI with SK-MEL-2 melanoma was 97.2 µM; with SF-539 CNS, 97 µM; in the test with ACHN renal, greater than 100 µM; in the test on COLO 205 colon, 55.7 µM; with K-562 leukemia it was 52.1 µM; in the test on SNB-19 CNS, greater than 100 µM. The TGI with SR leukemia is greater than 100 µM; in the test with HOP-62 NSCLC it was greater than 31.6 µM; with OVCAR-4 ovarian it was greater than 100 µM; in the test on HCC-2998 colon, greater than 68.2 µM.

As for `COc1ccc(Nc2nc3ccccc3nc2-c2cccs2)cc1`, the TGI in the test with SK-MEL-2 melanoma, in the test with SF-539 CNS, with ACHN renal, in the test with COLO 205 colon, in the test with K-562 leukemia and with SNB-19 CNS was greater than 100 µM throughout. Moreover, the TGI with SR leukemia, in the test on HOP-62 NSCLC, with OVCAR-4 ovarian and in the test on HCC-2998 colon was greater than 100 µM throughout.

Consider `Cc1ccccc1Nc1nc2c(s1)C(=O)c1ccccc1C2=O`, for which the TGI is 31.5 µM in the test with SK-MEL-2 melanoma; 12.7 µM in the test with SF-539 CNS; 14.6 µM with ACHN renal; 34.7 µM with COLO 205 colon; greater than 36.2 µM in the test with K-562 leukemia; 13.2 µM in the test on SNB-19 CNS. The TGI was 11.4 µM with SR leukemia, 30.2 µM with HOP-62 NSCLC, 5.13 µM in the test on OVCAR-4 ovarian and 32.2 µM with HCC-2998 colon.

As for `Cc1nnc(N/N=C(/C(=O)C(C#N)c2ccccc2)C(C#N)c2ccccc2)n1N` (stereo not given), the TGI in the test with SK-MEL-2 melanoma is 12.5 µM; in the test with SF-539 CNS, greater than 65.2 µM; in the test with ACHN renal, 65.5 µM; in the test with COLO 205 colon it was 14 µM; with K-562 leukemia, 27.9 µM; in the test on SNB-19 CNS, greater than 100 µM. Further, the TGI was greater than 100 µM with SR leukemia, greater than 100 µM with HOP-62 NSCLC, greater than 54.9 µM in the test on OVCAR-4 ovarian and 11 µM in the test with HCC-2998 colon.

Take `COc1ccc(/C=C2/CCc3cc4ccc(OC)cc4[o+]c32)c(O)c1`: the GI50 is 11.8 µM in the test with SK-MEL-2 melanoma; 15.1 µM in the test with SF-539 CNS; 4.15 µM with ACHN renal; 2.59 µM in the test on COLO 205 colon; 11.4 µM with K-562 leukemia; 8.48 µM in the test on SNB-19 CNS. Further, the GI50 was 3.04 µM in the test with SR leukemia, 13.1 µM in the test with HOP-62 NSCLC, 5.45 µM in the test with OVCAR-4 ovarian and 15.3 µM in the test on HCC-2998 colon. In addition, the TGI in the test on SK-MEL-2 melanoma is 25.3 µM; in the test with SF-539 CNS, 31.8 µM; in the test with ACHN renal, 15.8 µM; in the test with COLO 205 colon, 10.7 µM; with K-562 leukemia, 93.8 µM; with SNB-19 CNS, 25.6 µM. For the same compound, the TGI with SR leukemia was 45.6 µM; in the test with HOP-62 NSCLC, 28 µM; in the test with OVCAR-4 ovarian, 20.6 µM; in the test on HCC-2998 colon it was 32.6 µM.
